According to patent US20250026916A1, “ULTRAVIOLET ABSORBER AND USE THEREOF” (RIANLON (ZHONGWEI) NEW MATERIAL CO., LTD., priority 2023, published 2025):

Key:
[1] = general description of the commercial product; cited from earlier work
[2] = Absorption spectrum in chloroform (UV-visible spectrophotometer); assay type: physicochemical; conditions: chloroform solution 10 mg/L; for Peak area ratio in waveband 280-450 nm: total
Experimental: The absorption spectra were measured using an ultraviolet-visible spectrophotometer, and the instrument model is (UV-2600, Shimadzu corporation, Japan). The absorption spectra were compared in Table 1 below.

[3] = Color test, Gardner color scale of DMF solution; assay type: physicochemical; conditions: 2 g dissolved in 18 g DMF
Experimental: The completely dissolved solution was transferred to a cuvette, and the Gardner color scale value transmitted by the solvent was measured. The instrument was a Ci7600 bench spectrophotometer (X-rite, the United States).

[4] = Solubility/compatibility test in typical oligomer resins; conditions: mass soluble in 100 g of oligomer, 20° C.
Experimental: Test method: The mass of soluble ultraviolet absorber in 100 g of oligomer when the ambient temperature is 20° C.

| Absorption cut-off wavelength [2] [nm] | Maximum absorption peak in red shift direction [2] [nm] | Peak area ratio in waveband 280-360 nm [2] [%] | Peak area ratio in waveband 361-380 nm [2] [%] | Peak area ratio in waveband 381-400 nm [2] [%] | Peak area ratio in waveband 401-450 nm [2] [%] | Peak area ratio in waveband 280-450 nm [2] [%] | Gardner color scale [3] | Solubility in cyclohexanedimethylene diisocyanate (H6XDI) [4] [g] | Solubility in hexamethylene diisocyanate (HDI) trimer [4] [g] | Solubility in tripropylene glycol diacrylate [4] [g] | Structure (SMILES) | Wavelength to which absorption can be red-shifted [1] [nm] |
| --- | --- | --- | --- | --- | --- | --- | --- | --- | --- | --- | --- | --- |
| 435 | 374 | 56.2 | 14.6 | 18.5 | 10.7 | 100 | 11.5 | – | – | – | CCCCN1C(=O)c2cc3nn(-c4cc(C(C)(C)CC(C)(C)C)cc(C(C)(C)c5ccccc5)c4O)nc3cc2C1=O [Carboprotect, reference compound] | 420 |
| 416 | 369 | 58.1 | 26.5 | 13.6 | 1.8 | 100.0 | 3.0 | 4.2 | 4.6 | 3.9 | CCCCCCCCCCCCSc1ccc2nn(-c3cc(C)cc(C(C)(C)C)c3O)nc2c1 [RSUV-1] | – |
| 430 | 370 | 65.4 | 18.1 | 11.8 | 4.7 | 100.0 | 5.2 | 3 | 3.5 | 3.8 | CCCCCCCCCCCCS(=O)(=O)c1ccc2nn(-c3cc(C)cc(C(C)(C)C)c3O)nc2c1 [RSUV-2] | – |
| 410 | – | – | – | – | – | – | – | – | – | – | Cc1cc(-n2nc3ccc(Cl)cc3n2)c(O)c(C(C)(C)C)c1 [UV-326, 2′-(2′-hydroxy-3′-tert-butyl-5′-methylphenyl)-5-chlorobenzotriazole, reference compound] | – |
